Results: ChEMBL document CHEMBL1201862, “PubChem BioAssay data set” (2004)
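Step 1: Grow cells in 96-well plates. Step 2: Expose to compound for 48 hours at 5 concentrations. Step 3: Interpolate endpoints linearly; if unreached, use highest concentration. GI50: concentration for 50% inhibition of growth.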 Activity calls are given as the source filed them. Rule as the data show it: active = GI50 up to about 1.1 µM and inactive = higher.

Legend:
Assay in all cases: NCI-60 cell line screen, 48 h
[1] = system: ACHN
[2] = system: CAKI-1
[3] = system: CCRF-CEM
[4] = system: DLD-1
[5] = system: HT-29
[6] = system: LOX IMVI
[7] = system: M14
[8] = system: OVCAR-3
[9] = system: OVCAR-5
[10] = system: OVCAR-8
[11] = system: SF-295
[12] = system: SF-539
[13] = system: SK-MEL-2
[14] = system: SK-MEL-5
[15] = system: SN12C
[16] = system: SR
[17] = system: UO-31
[18] = system: MCF7
[19] = system: MDA-N
[20] = system: PC-3

Measured: GI50

CCCCCCC(=O)C/C(CCC(=O)N(Cc1ccccc1)Cc1ccccc1)=N\Nc1ccc([N+](=O)[O-])cc1[N+](=O)[O-]
inactive: [1] 27.3 µM | [2] > 100 µM | [3] 17.3 µM | [4] 42 µM | [5] 89.9 µM | [6] 33.3 µM | [7] 57.8 µM | [8] 35.4 µM | [9] > 100 µM | [10] 54.7 µM | [11] 55.1 µM | [12] 54.5 µM | [13] 83.4 µM | [14] 55.5 µM | [15] 56.1 µM | [16] > 10 µM | [17] 51.6 µM

COc1cc2c(cc1OC)C(Cl)C(c1ccc(Br)cc1)=C2Cl (stereo unspecified)
inactive: [1] 9.46 µM | [2] 15.1 µM | [3] 10.7 µM | [4] 12.7 µM | [5] 13.3 µM | [6] 9.48 µM | [7] 11.2 µM | [18] 7.21 µM | [19] 3.23 µM | [8] 9.84 µM | [9] 15.4 µM | [10] 10.1 µM | [20] 7.82 µM | [11] 14.9 µM | [12] 12.4 µM | [13] 9.08 µM | [14] 14.4 µM | [15] 10.6 µM | [16] 2.62 µM | [17] 8.65 µM

O=C1c2ccoc2C(=O)c2oc(=O)ccc21
inactive: [1] 2.86 µM | [2] > 45 µM | [3] 5.57 µM | [4] 18.7 µM | [5] 36.4 µM | [6] 2.88 µM | [7] 7.82 µM | [8] 3.36 µM | [9] 19.7 µM | [10] 6.35 µM | [11] 17.5 µM | [12] 3.45 µM | [13] 6.59 µM | [14] 1.7 µM | [15] 11.1 µM | [16] 1.43 µM | [17] 7.43 µM

COC(=O)c1cc(O)ccc1NC(=O)c1ccc(O)cc1
inactive: [1] > 100 µM | [2] 79.4 µM | [3] > 100 µM | [4] > 100 µM | [5] > 100 µM | [6] > 100 µM | [7] > 100 µM | [8] > 100 µM | [9] > 100 µM | [10] > 100 µM | [11] > 100 µM | [12] > 100 µM | [13] > 100 µM | [14] > 100 µM | [16] > 100 µM | [17] > 100 µM

COC(=O)N1CCc2c(nc(N(C)CCO)[nH]c2=O)C1
inactive: [1] > 100 µM | [2] > 100 µM | [3] > 100 µM | [4] > 100 µM | [5] > 100 µM | [6] > 100 µM | [7] > 100 µM | [8] > 100 µM | [9] > 100 µM | [10] > 100 µM | [11] > 100 µM | [12] > 100 µM | [13] > 100 µM | [14] > 100 µM | [15] > 100 µM | [16] > 100 µM | [17] > 100 µM

N#Cc1c(-c2ccco2)cc(-c2ccccc2)nc1O
inactive: [1] > 100 µM | [3] > 100 µM | [4] > 100 µM | [5] > 100 µM | [6] > 100 µM | [7] > 100 µM | [8] > 100 µM | [9] > 100 µM | [10] > 100 µM | [11] > 100 µM | [12] > 100 µM | [14] > 100 µM | [15] > 100 µM | [16] > 100 µM | [17] > 100 µM

CCC(=O)C1=C(OC(C)=O)C2Cc3c(n(C)c4ccccc34)C(C1)N2C (stereo unspecified)
inactive: [1] 27.3 µM | [2] 33.7 µM | [3] 27 µM | [4] 23.8 µM | [5] 30.8 µM | [6] 40.5 µM | [7] 37.8 µM | [8] 22.9 µM | [9] > 100 µM | [10] 18.9 µM | [11] > 100 µM | [12] 16.7 µM | [13] 63.7 µM | [14] 28.2 µM | [15] 25.3 µM | [16] 36.1 µM | [17] 36.1 µM

CC1CCP(=O)(c2ccccc2)c2ccccc21 (stereo unspecified)
inactive: [1] 42.5 µM | [3] 37.7 µM | [4] 46.8 µM | [5] > 100 µM | [6] 24.3 µM | [7] > 100 µM | [8] 76.2 µM | [9] > 100 µM | [10] 41.6 µM | [11] > 100 µM | [12] 56.1 µM | [13] > 100 µM | [14] 49.5 µM | [15] 26.2 µM | [16] 32.4 µM | [17] > 100 µM

COC(=O)C1=C(C(=O)OC)SC(=CC#CC=C2SC(C(=O)OC)=C(C(=O)OC)S2)S1
inactive: [1] 11.8 µM | [2] 25.5 µM | [3] > 100 µM | [4] 14.1 µM | [5] 24.9 µM | [6] 9.71 µM | [7] 13.6 µM | [8] 5.94 µM | [9] > 90.6 µM | [10] 5.04 µM | [11] 2.82 µM | [12] 2.19 µM | [13] 12.9 µM | [14] 27 µM | [15] 13.5 µM | [16] > 100 µM | [17] 3.51 µM

N/N=C1\C(=O)N(CCc2ccccc2)C(=O)C1C(=O)NCCc1ccccc1 (stereo unspecified)
inactive: [1] > 100 µM | [2] > 100 µM | [3] > 100 µM | [4] > 100 µM | [5] > 100 µM | [6] > 100 µM | [7] > 100 µM | [8] > 100 µM | [11] > 100 µM | [12] > 100 µM | [13] > 100 µM | [15] > 100 µM | [16] > 100 µM | [17] > 100 µM

CCOC1c2nc3ccccc3nc2-c2ccccc2N1C(C)=O (stereo unspecified)
inactive: [1] > 100 µM | [2] > 100 µM | [3] > 100 µM | [4] > 100 µM | [5] > 100 µM | [7] > 100 µM | [8] > 100 µM | [10] 48.2 µM | [11] 69.3 µM | [12] > 100 µM | [13] 81.7 µM | [15] > 100 µM | [16] > 100 µM | [17] > 100 µM

CC(C)(Oc1ccc(/C=C/C(=O)c2ccc(Cl)cc2)cc1)C(=O)Nc1c(Cl)cccc1Cl
inactive: [1] 20.9 µM | [2] 23.7 µM | [4] 13.7 µM | [5] 13.3 µM | [6] 16 µM | [7] 17.5 µM | [8] 19.5 µM | [9] 41.1 µM | [10] 14.1 µM | [11] 25.8 µM | [12] 14.6 µM | [13] 42.3 µM | [14] 18.2 µM | [15] 15 µM | [16] > 100 µM | [17] 24.4 µM
